From patent US11117892B2, “Pyrrolo-pyridine derivative compound, method for preparing same, and pharmaceutical composition containing same as active ingredient for prevention or treatment of protein kinase-related diseases” (DAEGU-GYEONGBUK MEDICAL INNOVATION FOUNDATION, priority 2017, dated 2021)

Tests used:
Experiment in all cases: scanMAX Kinase assay panel
Type in all cases: binding
Settings in all cases: read-out: % control
PIP5K2C = PIP5K2C (Homo sapiens (Human), UniProt Q8TBX8)
Method: (§1) DiscoverX Co. was asked to measure the enzyme (kinase) selectivity, and the experiment was performed using scanMAX™ Kinase assay panel.
(§2) (Example Compound−Positive Control)/(Negative Control−Positive Control)×100 [Equation 1]
(§3) Herein, the positive control indicates the compound showing the % control of 0%, and the negative control indicates DMSO showing the % control of 100%.

BMPR1B = BMPR1B (Homo sapiens (Human), UniProt O00238)
Method: as §1, §2, §3

TAOK1 = TAOK1 (Homo sapiens (Human), UniProt Q7L7X3)
Method: as §1, §2, §3

KIT(V559D, V654A) = KIT(V559D, V654A) (Homo sapiens (Human), UniProt P10721, V559D/V654A)
Method: as §1, §2, §3

CDK7 = CDK7 (Homo sapiens (Human), UniProt P50613)
Method: as §1, §2, §3

CDK11 = CDK11 (Homo sapiens (Human), UniProt Q9BWU1)
Method: as §1, §2, §3

CDK2 = CDK2 (Homo sapiens (Human), UniProt P24941)
Method: as §1, §2, §3

ROCK1 = ROCK1 (Homo sapiens (Human), UniProt Q13464)
Method: as §1, §2, §3

MET = MET (Homo sapiens (Human), UniProt P08581)
Method: as §1, §2, §3

NEK9 = NEK9 (Homo sapiens (Human), UniProt Q8TD19)
Method: as §1, §2, §3

[1] = molecular target: JAK1(JH2domain-pseudokinase) (Homo sapiens (Human), UniProt P23458)
Method: as §1, §2, §3

JNK1 = JNK1 (Homo sapiens (Human), UniProt P45983)
Method: as §1, §2, §3

PLK1 = PLK1 (Homo sapiens (Human), UniProt P53350)
Method: as §1, §2, §3

BMPR2 = BMPR2 (Homo sapiens (Human), UniProt Q13873)
Method: as §1, §2, §3

MAP4K5 = MAP4K5 (Homo sapiens (Human), UniProt Q9Y4K4)
Method: as §1, §2, §3

PCTK2 = PCTK2 (Homo sapiens (Human), UniProt Q00537)
Method: as §1, §2, §3

NDR2 = NDR2 (Homo sapiens (Human), UniProt Q9Y2H1)
Method: as §1, §2, §3

LIMK2 = LIMK2 (Homo sapiens (Human), UniProt P53671)
Method: as §1, §2, §3

ERBB3 = ERBB3 (Homo sapiens (Human), UniProt P21860)
Method: as §1, §2, §3

DDR1 = DDR1 (Homo sapiens (Human), UniProt Q08345)
Method: as §1, §2, §3

NEK4 = NEK4 (Homo sapiens (Human), UniProt P51957)
Method: as §1, §2, §3

RET(M918T) = RET(M918T) (Homo sapiens (Human), UniProt P07949, M918T)
Method: as §1, §2, §3

FGFR3(G697C) = FGFR3(G697C) (Homo sapiens (Human), UniProt P22607, G697C)
Method: as §1, §2, §3

ULK3 = ULK3 (Homo sapiens (Human), UniProt Q6PHR2)
Method: as §1, §2, §3

ALK(L1196M) = ALK(L1196M) (Homo sapiens (Human), UniProt Q9UM73, L1196M)
Method: as §1, §2, §3

PKAC-beta = PKAC-beta (Homo sapiens (Human), UniProt P22694)
Method: as §1, §2, §3

SLK = SLK (Homo sapiens (Human), UniProt Q9H2G2)
Method: as §1, §2, §3

BLK = BLK (Homo sapiens (Human), UniProt P51451)
Method: as §1, §2, §3

AMPK-alpha1 = AMPK-alpha1 (Homo sapiens (Human), UniProt Q13131)
Method: as §1, §2, §3

MYLK4 = MYLK4 (Homo sapiens (Human), UniProt Q86YV6)
Method: as §1, §2, §3

MST1 = MST1 (Homo sapiens (Human), UniProt Q13043)
Method: as §1, §2, §3

EGFR(L858R) = EGFR(L858R) (Homo sapiens (Human), UniProt P00533, L858R)
Method: as §1, §2, §3

RIPK5 = RIPK5 (Homo sapiens (Human), UniProt Q6XUX3)
Method: as §1, §2, §3

PRKX = PRKX (Homo sapiens (Human), UniProt P51817)
Method: as §1, §2, §3

ULK2 = ULK2 (Homo sapiens (Human), UniProt Q8IYT8)
Method: as §1, §2, §3

PDGFRA = PDGFRA (Homo sapiens (Human), UniProt P16234)
Method: as §1, §2, §3

VPS34 = VPS34 (Homo sapiens (Human), UniProt Q8NEB9)
Method: as §1, §2, §3

KIT = KIT (Homo sapiens (Human), UniProt P10721)
Method: as §1, §2, §3

STK39 = STK39 (Homo sapiens (Human), UniProt Q9UEW8)
Method: as §1, §2, §3

Sequence of ULK3 (Q6PHR2 whole entry): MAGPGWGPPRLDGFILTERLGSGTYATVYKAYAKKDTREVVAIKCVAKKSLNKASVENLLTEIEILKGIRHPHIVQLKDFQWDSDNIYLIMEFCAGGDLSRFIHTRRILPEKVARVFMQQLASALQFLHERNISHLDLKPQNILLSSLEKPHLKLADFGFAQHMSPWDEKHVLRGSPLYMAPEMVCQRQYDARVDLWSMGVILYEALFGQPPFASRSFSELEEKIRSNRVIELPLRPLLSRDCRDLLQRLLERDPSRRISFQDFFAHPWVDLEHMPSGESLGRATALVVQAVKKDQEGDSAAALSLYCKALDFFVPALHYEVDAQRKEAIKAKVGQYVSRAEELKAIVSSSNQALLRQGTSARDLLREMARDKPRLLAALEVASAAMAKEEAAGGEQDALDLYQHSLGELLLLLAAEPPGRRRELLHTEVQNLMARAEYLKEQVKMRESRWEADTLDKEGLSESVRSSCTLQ
Sequence of MET (P08581 25-1390): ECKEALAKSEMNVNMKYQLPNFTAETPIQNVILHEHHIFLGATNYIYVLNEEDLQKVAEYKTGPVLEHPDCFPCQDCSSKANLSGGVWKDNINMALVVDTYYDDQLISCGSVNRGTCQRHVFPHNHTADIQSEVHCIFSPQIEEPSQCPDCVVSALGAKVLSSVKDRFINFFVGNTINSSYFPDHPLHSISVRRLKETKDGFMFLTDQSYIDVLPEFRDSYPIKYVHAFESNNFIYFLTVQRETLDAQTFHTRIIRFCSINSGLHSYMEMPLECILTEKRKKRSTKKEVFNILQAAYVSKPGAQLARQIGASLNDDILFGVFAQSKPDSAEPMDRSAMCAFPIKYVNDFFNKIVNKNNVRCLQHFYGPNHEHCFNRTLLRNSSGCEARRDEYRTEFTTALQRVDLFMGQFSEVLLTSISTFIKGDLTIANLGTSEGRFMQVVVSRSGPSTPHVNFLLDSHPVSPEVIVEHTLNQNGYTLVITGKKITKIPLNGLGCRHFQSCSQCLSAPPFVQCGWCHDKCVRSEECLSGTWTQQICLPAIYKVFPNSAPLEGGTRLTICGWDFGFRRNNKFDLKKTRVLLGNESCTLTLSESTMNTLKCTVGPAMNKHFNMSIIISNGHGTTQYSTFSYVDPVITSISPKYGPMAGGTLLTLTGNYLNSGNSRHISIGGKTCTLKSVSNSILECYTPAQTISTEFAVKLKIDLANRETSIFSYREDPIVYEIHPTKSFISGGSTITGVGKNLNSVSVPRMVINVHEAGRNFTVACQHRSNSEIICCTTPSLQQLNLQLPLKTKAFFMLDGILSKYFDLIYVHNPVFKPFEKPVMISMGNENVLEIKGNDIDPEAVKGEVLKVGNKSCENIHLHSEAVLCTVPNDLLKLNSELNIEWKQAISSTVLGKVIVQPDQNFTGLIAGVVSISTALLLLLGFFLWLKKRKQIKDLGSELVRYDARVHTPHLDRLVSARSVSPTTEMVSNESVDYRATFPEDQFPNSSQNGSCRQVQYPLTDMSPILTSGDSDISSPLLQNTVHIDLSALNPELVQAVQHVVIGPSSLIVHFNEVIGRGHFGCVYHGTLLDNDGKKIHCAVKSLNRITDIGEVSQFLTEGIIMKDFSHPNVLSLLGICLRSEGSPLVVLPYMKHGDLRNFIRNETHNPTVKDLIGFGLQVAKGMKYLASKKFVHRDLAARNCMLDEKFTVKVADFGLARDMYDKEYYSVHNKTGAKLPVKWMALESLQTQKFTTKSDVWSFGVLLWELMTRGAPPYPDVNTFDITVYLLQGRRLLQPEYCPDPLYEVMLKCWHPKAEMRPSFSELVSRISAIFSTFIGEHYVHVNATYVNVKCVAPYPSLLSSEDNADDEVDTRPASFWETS
Sequence of KIT(V559D, V654A) (P10721 26-976 V559D/V654A): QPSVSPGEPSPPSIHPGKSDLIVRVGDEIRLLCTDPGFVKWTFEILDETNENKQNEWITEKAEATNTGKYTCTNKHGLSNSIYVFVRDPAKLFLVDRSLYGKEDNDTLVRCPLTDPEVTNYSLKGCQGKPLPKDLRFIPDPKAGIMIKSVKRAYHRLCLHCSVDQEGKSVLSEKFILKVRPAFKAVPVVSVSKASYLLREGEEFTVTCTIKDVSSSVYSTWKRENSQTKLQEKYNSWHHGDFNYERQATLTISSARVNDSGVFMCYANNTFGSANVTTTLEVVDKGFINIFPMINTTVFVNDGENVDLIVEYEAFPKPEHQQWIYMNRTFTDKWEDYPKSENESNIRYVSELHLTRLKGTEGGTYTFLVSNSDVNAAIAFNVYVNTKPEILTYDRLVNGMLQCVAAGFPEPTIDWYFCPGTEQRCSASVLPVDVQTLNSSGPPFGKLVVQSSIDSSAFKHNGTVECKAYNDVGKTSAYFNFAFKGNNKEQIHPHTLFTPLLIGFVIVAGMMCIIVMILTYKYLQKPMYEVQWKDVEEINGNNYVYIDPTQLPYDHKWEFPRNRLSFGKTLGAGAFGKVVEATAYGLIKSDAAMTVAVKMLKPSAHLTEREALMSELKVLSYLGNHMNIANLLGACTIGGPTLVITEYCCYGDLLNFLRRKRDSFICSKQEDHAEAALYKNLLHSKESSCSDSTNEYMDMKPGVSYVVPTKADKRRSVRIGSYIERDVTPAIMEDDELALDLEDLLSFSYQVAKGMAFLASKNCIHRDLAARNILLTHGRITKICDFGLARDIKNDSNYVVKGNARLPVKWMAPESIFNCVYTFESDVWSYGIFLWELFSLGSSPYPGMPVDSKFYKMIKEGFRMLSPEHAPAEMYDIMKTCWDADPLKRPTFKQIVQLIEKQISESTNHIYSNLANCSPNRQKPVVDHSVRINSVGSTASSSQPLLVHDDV
Sequence of PIP5K2C (Q8TBX8 whole entry): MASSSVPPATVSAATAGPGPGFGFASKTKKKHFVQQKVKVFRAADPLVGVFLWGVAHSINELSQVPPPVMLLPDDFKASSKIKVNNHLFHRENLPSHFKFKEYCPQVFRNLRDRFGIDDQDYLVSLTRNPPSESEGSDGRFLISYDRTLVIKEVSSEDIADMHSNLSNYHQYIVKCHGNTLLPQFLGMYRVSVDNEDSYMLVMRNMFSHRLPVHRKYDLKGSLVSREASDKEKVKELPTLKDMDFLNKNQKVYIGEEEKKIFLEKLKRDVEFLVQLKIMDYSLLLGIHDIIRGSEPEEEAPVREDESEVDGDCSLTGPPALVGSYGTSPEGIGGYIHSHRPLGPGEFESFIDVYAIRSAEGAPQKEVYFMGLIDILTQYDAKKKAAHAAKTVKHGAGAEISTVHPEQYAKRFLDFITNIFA
Sequence of RIPK5 (Q6XUX3 whole entry): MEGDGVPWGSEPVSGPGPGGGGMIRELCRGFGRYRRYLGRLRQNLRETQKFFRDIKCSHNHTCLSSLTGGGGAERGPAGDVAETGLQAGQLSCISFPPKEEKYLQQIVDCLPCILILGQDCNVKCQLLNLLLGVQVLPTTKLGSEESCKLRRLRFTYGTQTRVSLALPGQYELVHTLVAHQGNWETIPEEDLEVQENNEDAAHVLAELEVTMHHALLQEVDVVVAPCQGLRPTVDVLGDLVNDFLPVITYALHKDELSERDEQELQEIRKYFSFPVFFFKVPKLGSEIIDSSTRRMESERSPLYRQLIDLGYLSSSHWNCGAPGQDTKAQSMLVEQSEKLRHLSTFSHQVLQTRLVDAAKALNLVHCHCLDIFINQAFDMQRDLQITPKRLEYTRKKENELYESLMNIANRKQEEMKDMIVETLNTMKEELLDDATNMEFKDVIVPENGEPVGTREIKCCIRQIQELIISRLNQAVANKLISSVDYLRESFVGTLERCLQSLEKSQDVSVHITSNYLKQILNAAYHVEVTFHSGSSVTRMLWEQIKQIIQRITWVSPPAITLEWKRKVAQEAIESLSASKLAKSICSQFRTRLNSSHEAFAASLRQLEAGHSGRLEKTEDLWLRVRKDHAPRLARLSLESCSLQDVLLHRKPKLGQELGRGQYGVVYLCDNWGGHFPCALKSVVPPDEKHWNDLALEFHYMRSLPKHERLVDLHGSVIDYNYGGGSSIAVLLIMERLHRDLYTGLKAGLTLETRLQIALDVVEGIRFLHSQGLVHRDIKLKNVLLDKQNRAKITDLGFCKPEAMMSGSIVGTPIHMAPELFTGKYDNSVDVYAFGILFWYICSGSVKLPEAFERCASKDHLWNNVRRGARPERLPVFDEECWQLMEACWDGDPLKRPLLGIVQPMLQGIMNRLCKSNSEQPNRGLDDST
Sequence of VPS34 (Q8NEB9 whole entry): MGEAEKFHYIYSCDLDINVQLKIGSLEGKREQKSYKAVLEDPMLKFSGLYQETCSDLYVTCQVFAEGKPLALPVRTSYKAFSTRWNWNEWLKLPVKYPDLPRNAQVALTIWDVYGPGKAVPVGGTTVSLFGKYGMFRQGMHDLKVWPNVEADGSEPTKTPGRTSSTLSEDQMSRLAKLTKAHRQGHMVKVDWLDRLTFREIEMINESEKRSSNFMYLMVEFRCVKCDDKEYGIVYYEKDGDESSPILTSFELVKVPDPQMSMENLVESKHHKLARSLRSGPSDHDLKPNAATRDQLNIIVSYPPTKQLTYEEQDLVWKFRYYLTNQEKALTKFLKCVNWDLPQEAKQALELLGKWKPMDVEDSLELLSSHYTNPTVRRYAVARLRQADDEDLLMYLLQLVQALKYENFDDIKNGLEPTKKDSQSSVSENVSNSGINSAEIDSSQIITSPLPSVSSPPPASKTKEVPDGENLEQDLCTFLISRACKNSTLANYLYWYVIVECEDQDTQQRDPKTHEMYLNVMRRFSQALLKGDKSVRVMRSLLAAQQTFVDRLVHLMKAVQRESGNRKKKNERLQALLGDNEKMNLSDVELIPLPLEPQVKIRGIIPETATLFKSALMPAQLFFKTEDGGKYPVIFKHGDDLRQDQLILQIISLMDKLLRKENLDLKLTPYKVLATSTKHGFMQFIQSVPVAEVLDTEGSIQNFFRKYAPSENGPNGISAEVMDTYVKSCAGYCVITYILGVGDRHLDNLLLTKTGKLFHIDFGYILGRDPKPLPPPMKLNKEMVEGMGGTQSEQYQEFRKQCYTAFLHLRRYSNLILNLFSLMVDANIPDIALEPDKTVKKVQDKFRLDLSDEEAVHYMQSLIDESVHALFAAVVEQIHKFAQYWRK
Sequence of KIT (P10721 26-976): as the sequence (P10721 26-976 V559D/V654A) above, with D534V, A629V counted along it

Compound	remaining binding at 1 µM (PIP5K2C) [%]	remaining binding at 1 µM (BMPR1B) [%]	remaining binding at 1 µM (TAOK1) [%]	remaining binding at 1 µM (KIT(V559D, V654A)) [%]	remaining binding at 1 µM (CDK7) [%]	remaining binding at 1 µM (CDK11) [%]	remaining binding at 1 µM (CDK2) [%]	remaining binding at 1 µM (ROCK1) [%]	remaining binding at 1 µM (MET) [%]	remaining binding at 1 µM (NEK9) [%]	remaining binding at 1 µM [1] [%]	remaining binding at 1 µM (JNK1) [%]	remaining binding at 1 µM (PLK1) [%]	remaining binding at 1 µM (BMPR2) [%]	remaining binding at 1 µM (MAP4K5) [%]	remaining binding at 1 µM (PCTK2) [%]	remaining binding at 1 µM (NDR2) [%]	remaining binding at 1 µM (LIMK2) [%]	remaining binding at 1 µM (ERBB3) [%]	remaining binding at 1 µM (DDR1) [%]	other results
CCNc1cc(Nc2ccc(C(=O)N3CCC(N4CCOCC4)CC3)cc2OC)nc2[nH]cc(C#N)c12 [Example 18, 4-(ethylamino)-6-((2-methoxy-4-(4-morpholinopiperidine-1-carbonyl)phenyl)amino)-1H-pyrrolo[2,3-b]pyridine-3-carbonitrile]	16	85	82	97	55	98	100	9.1	100	91	82	0	41	44	99	100	95	90	97	98	remaining binding at 1 µM (NEK4): 86%; remaining binding at 1 µM (RET(M918T)): 99%; remaining binding at 1 µM (FGFR3(G697C)): 88%; remaining binding at 1 µM (ULK3): 95%; remaining binding at 1 µM (ALK(L1196M)): 13%; remaining binding at 1 µM (PKAC-beta): 66%; remaining binding at 1 µM (SLK): 95%; remaining binding at 1 µM (BLK): 99%; remaining binding at 1 µM (AMPK-alpha1): 92%; remaining binding at 1 µM (MYLK4): 88%; remaining binding at 1 µM (MST1): 99%; remaining binding at 1 µM (EGFR(L858R)): 100%; remaining binding at 1 µM (RIPK5): 18%; remaining binding at 1 µM (PRKX): 92%; remaining binding at 1 µM (ULK2): 67%; remaining binding at 1 µM (PDGFRA): 77%; remaining binding at 1 µM (VPS34): 96%; remaining binding at 1 µM (KIT): 49%; remaining binding at 1 µM (STK39): 26%
CCNc1cc(Nc2ccc(C(=O)N3CCC(N4CCOCC4)CC3)cc2OC)nc2[nH]cc(C(F)(F)F)c12 [Example 57, (4-((4-(ethylamino)-3-(trifluoromethyl)-1H-pyrrolo[2,3-b]pyridin-6-yl)amino)-3-methoxyphenyl) (4-morpholinopiperidin-1-yl)methanone]	71	100	100	84	53	67	100	100	100	89	45	40	100	84	100	98	80	99	100	98	remaining binding at 1 µM (NEK4): 99%; remaining binding at 1 µM (RET(M918T)): 100%; remaining binding at 1 µM (FGFR3(G697C)): 78%; remaining binding at 1 µM (ULK3): 83%; remaining binding at 1 µM (ALK(L1196M)): 14%; remaining binding at 1 µM (PKAC-beta): 92%; remaining binding at 1 µM (SLK): 80%; remaining binding at 1 µM (BLK): 73%; remaining binding at 1 µM (AMPK-alpha1): 75%; remaining binding at 1 µM (MYLK4): 83%; remaining binding at 1 µM (MST1): 76%; remaining binding at 1 µM (EGFR(L858R)): 100%; remaining binding at 1 µM (RIPK5): 79%; remaining binding at 1 µM (PRKX): 80%; remaining binding at 1 µM (ULK2): 93%; remaining binding at 1 µM (PDGFRA): 100%; remaining binding at 1 µM (VPS34): 79%; remaining binding at 1 µM (KIT): 91%; remaining binding at 1 µM (STK39): 43%
